Patent US9440952B2, “Compounds inhibiting leucine-rich repeat kinase enzyme activity” (Merck Sharp & Dohme Corp., priority 2013, dated 2016)

How the values were obtained:
Format in all cases: biochemical
[1] = molecular target: T1, LRRK2(G2019S mutation, GST-LRRK2(amino acids 970-2527)) (Homo sapiens, UniProt Q5S007, G2019S); test: LRRK2 Km ATP LanthaScreen Assay; conditions: read-out: LRRK2 IC50
T1 construct: GST-LRRK2(amino acids 970-2527); GST (N); purchased Life Technologies Corporation
Outline: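 IC50 values are means of several runs in the Km-ATP LanthaScreen format, analysed by curve fitting of the LanthaScreen read-out.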

[2] = molecular target: T1, LRRK2(G2019S mutation, GST-LRRK2(amino acids 970-2527)); test: LRRK2 5 mM ATP LanthaScreen Assay; conditions: mean IC50 of several tests
Description: The data presented for the 5 mM and Km ATP LanthaScreen™ Assay represents mean IC50 values based on several test results and may have reasonable. deviations depending on the specific conditions and reagents used. Reagents for the LRRK2 5 mM and Km ATP LanthaScreen™ Assay were purchased from Life Technologies Corporation.
LRRK2 5 mM ATP LanthaScreen™ Assay • a) 400 nl of a 1:2.15 serial dilution of test compound (98 μM top assay concentration) is spotted via Labcyte Echo to certain wells in a 384 well black, untreated plate. […] Results are analysed using Assay Data Analyzer.

[3] = molecular target: T2, kinases (Table B) (Homo sapiens, UniProt O96017); test: Kinase selectivity, Z'-LYTE or Adapta assay platforms (Life Technologies); conditions: CHEK2 (CHK2), Z-LYTE, read-out: percent inhibition CHEK2 (CHK2); for inhibition at 1 µM: test conc 1 μM
T2 construct: purchased Life Technologies Corporation

[4] = molecular target: T3, kinases (Table B) (Homo sapiens, UniProt P15056, V600E); test: as above; conditions: BRAF V599E, Z-LYTE, read-out: percent inhibition BRAF V599E; for inhibition at 1 µM: test conc 1 μM
T3 construct: purchased Life Technologies Corporation

[5] = molecular target: T4, kinases (Table B) (Homo sapiens, UniProt P28482); test: as above; conditions: MAPK1 (ERK2), Z-LYTE, read-out: percent inhibition MAPK1 (ERK2); for inhibition at 1 µM: test conc 1 μM; for inhibition at 0.1 µM: test conc 0.100 μM
T4 construct: purchased Life Technologies Corporation

[6] = molecular target: T5, kinases (Table B) (Homo sapiens, UniProt P45983); test: as above; conditions: MAPK8 (JNK1), Z-LYTE, read-out: percent inhibition MAPK8 (JNK1); for inhibition at 1 µM: test conc 1 μM
T5 construct: purchased Life Technologies Corporation

[7] = molecular target: T6, kinases (Table B) (Homo sapiens, UniProt Q13627); test: as above; conditions: DYRK1A, Z-LYTE, read-out: percent inhibition DYRK1A; for inhibition at 1 µM: test conc 1 μM; for inhibition at 0.1 µM: test conc 0.100 μM
T6 construct: purchased Life Technologies Corporation

[8] = molecular target: T7, kinases (Table B) (Homo sapiens, UniProt Q96GD4); test: as above; conditions: AURKB (Aurora B), Z-LYTE, read-out: percent inhibition AURKB (Aurora B); for inhibition at 1 µM: test conc 1 μM; for inhibition at 0.1 µM: test conc 0.100 μM
T7 construct: purchased Life Technologies Corporation

[9] = tested on: kinases (Table B); test: as above; conditions: for percent inhibition CDK1/cyclin B / percent inhibition CLK2 / percent inhibition JAK3: Z-LYTE; for percent inhibition IRAK1: Adapta
[10] = Km ATP LanthaScreen, mean IC50 of several tests
[11] = Km ATP LanthaScreen Assay, LRRK2 G2019S, mean IC50 values

T1 sequence (Q5S007 970-2527 G2019S): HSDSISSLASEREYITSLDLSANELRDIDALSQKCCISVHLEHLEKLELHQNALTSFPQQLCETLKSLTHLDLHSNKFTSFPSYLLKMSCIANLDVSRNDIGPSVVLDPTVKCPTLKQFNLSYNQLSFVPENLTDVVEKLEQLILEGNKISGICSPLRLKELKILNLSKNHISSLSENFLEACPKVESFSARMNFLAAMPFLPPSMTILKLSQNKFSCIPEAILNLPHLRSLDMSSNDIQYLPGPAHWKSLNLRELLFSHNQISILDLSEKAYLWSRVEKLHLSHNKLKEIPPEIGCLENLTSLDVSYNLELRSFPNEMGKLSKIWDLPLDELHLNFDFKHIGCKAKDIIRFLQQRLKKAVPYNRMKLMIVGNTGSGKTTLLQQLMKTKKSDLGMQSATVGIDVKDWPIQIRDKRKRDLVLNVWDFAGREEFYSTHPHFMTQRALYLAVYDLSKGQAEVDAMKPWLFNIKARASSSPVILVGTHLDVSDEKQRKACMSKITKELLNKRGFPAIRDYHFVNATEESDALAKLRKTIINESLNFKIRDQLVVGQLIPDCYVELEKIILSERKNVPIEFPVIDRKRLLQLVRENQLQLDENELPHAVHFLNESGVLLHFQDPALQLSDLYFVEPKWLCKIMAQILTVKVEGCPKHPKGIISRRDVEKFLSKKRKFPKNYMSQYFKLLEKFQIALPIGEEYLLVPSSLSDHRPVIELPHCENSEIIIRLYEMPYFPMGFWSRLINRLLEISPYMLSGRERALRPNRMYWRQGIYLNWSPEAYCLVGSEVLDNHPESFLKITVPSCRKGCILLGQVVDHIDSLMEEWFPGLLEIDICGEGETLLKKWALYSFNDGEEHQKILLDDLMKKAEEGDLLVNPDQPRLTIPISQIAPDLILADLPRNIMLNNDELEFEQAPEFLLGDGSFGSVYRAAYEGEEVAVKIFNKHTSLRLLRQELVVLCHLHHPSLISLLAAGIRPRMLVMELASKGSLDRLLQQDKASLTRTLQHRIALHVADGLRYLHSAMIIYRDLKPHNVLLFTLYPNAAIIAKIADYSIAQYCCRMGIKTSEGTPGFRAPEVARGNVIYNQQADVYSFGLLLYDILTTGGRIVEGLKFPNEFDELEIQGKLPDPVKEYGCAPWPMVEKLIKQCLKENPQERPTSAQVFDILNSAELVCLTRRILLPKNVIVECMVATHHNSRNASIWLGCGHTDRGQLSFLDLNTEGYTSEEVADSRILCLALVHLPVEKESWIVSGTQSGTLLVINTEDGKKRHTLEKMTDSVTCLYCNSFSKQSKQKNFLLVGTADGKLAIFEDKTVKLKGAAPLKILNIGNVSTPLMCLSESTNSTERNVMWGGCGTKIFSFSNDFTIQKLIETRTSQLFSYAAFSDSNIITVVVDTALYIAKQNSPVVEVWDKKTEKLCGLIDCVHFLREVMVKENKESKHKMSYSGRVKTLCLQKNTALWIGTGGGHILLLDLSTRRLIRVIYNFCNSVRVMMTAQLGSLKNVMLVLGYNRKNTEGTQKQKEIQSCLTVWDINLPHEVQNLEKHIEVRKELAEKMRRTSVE
T4 sequence (P28482 whole entry): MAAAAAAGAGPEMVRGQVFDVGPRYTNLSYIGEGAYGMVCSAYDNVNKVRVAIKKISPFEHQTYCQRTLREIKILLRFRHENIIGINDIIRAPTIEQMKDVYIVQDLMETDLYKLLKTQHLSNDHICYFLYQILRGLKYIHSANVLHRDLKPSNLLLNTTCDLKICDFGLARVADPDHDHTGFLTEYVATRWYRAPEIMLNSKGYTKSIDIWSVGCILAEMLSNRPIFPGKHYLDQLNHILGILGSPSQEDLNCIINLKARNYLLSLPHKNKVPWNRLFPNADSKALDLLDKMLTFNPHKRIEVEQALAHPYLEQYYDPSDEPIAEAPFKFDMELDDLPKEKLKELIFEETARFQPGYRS
T7 sequence (Q96GD4 whole entry): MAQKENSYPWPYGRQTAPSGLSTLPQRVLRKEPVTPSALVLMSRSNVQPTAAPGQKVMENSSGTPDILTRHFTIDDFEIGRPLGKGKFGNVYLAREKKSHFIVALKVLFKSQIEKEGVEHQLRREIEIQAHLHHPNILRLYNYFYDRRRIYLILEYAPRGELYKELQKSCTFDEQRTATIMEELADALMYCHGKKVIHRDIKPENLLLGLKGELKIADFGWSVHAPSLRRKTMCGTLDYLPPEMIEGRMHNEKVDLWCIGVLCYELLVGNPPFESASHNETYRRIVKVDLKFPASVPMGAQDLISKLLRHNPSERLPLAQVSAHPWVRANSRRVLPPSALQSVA
T3 sequence (P15056 whole entry V600E): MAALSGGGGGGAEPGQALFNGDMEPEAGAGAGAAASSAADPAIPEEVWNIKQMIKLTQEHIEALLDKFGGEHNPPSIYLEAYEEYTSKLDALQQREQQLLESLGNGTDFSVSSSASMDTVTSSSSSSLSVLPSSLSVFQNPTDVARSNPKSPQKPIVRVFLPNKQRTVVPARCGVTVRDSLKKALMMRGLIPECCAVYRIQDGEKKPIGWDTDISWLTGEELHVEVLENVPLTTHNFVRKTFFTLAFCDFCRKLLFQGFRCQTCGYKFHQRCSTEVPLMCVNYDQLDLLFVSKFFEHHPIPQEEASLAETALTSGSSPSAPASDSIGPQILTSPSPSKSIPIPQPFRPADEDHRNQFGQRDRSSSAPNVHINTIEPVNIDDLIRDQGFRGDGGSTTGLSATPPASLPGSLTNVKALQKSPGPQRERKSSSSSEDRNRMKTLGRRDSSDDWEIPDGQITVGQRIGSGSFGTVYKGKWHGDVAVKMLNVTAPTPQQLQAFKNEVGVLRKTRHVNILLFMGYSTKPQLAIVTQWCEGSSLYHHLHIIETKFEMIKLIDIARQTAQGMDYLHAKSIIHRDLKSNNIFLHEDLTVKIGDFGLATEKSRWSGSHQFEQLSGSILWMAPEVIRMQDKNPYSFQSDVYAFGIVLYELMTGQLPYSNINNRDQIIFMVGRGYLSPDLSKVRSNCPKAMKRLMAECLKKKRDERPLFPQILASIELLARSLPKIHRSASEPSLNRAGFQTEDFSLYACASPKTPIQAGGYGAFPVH
T5 sequence (P45983 whole entry): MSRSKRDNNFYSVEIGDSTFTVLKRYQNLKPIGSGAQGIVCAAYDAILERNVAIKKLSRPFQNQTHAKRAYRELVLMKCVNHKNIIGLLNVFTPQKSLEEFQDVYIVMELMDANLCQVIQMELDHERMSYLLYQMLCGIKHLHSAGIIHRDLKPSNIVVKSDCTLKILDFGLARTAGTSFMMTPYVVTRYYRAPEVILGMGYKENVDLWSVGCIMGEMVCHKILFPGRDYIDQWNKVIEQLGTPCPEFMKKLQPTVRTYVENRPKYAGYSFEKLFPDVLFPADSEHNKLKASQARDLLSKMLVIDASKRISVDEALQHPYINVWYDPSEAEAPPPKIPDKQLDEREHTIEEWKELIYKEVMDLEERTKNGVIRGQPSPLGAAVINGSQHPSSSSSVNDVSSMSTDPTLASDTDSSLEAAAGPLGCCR
T2 sequence (O96017 whole entry): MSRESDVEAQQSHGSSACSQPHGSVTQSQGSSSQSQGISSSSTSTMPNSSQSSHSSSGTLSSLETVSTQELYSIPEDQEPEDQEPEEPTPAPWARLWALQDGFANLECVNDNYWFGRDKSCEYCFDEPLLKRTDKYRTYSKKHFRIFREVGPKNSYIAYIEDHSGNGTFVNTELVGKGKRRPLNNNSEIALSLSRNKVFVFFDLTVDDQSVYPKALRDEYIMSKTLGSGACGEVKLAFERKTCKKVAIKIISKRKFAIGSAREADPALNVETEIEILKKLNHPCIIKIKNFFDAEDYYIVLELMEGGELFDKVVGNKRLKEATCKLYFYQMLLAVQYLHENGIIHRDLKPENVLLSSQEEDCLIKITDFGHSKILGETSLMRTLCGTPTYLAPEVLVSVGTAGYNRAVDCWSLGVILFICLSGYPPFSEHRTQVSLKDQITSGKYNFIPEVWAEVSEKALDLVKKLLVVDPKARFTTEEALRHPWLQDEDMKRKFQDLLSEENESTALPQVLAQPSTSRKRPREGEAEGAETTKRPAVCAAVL

## Cn1cc(-c2ccc3[nH]nc(-c4ccnc(N5CC(F)C5)c4)c3c2)cn1 [Ex 376]
[1]; [10]
  IC50: < 0.6 nM
[2]
  IC50: 23 nM

## Oc1cc(-c2ccc3[nH]nc(-c4ccnc(N5CCC(O)CC5)c4)c3c2)ccn1 [Example 121]
[1]; [11]
  IC50: 1.4 nM
[2]
  IC50: 16 nM

## CC(C)Oc1ccc2[nH]nc(-c3ccnc(N4CCC(O)CC4)c3)c2c1 [Example 285]
[1]; [10]
  IC50: 3.8 nM
[2]
  IC50: 15 nM

## CC(C)Oc1ccc2[nH]nc(-c3ccnc(N4CCN(S(C)(=O)=O)CC4)c3)c2c1 [Example 289]
[1]; [10]
  IC50: 2.7 nM
[2]
  IC50: 16 nM
[3]
  inhibition at 1 µM: 26%
[4]
  inhibition at 1 µM: 64%
[5]
  inhibition at 1 µM: 55%
[6]
  inhibition at 1 µM: 54%
[7]
  inhibition at 1 µM: 12%
[8]
  inhibition at 1 µM: 23%
[9]; test conc 1 μM
  percent inhibition CDK1/cyclin B: 18%
  percent inhibition CLK2: 49%
  percent inhibition IRAK1: 6%
  percent inhibition JAK3: 29%

## CC(C)Oc1ccc2[nH]nc(-c3ccnc(N4CCNC(=O)C4)c3)c2c1 [Example 311]
[1]; [10]
  IC50: < 0.6 nM
[2]
  IC50: 14 nM

## Cc1c(-c2ccc3[nH]nc(-c4ccnc(N5CCOCC5)c4)c3c2)cnn1C [Example 316]
[1]; [10]
  IC50: 2.1 nM
[2]
  IC50: 8 nM

## Cn1cc(-c2ccc3[nH]nc(-c4ccnc(N5CCOCC5)c4)c3c2)cn1 [Example 321]
[1]; [10]
  IC50: < 0.6 nM
[2]
  IC50: 12 nM

## CCOc1ccc2[nH]nc(-c3ccnc(N[C@@H](C)CO)c3)c2c1 [Example 358]
[1]; [10]
  IC50: 16 nM

## CCOc1ccc2[nH]nc(-c3ccnc(N4CC(OC)C4)c3)c2c1 [Example 359]
[1]; [10]
  IC50: 15 nM

## CCOc1ccc2[nH]nc(-c3ccnc(N4CCN(S(C)(=O)=O)CC4)c3)c2c1 [Example 360]
[1]; [10]
  IC50: < 0.6 nM

## CCOc1ccc2[nH]nc(-c3ccnc(N4CC(O)(C(F)(F)F)C4)c3)c2c1 [Example 361]
[1]; [10]
  IC50: < 0.6 nM

## CCOc1ccc2[nH]nc(-c3ccnc(N4CCN(C)CC4)c3)c2c1 [Example 362]
[1]; [10]
  IC50: 10 nM

## OCCOc1ccc2[nH]nc(-c3ccnc(N4CCOCC4)c3)c2c1 [Example 363]
[1]; [10]
  IC50: 9.3 nM

## CC(C)Oc1cc2c(-c3ccnc(N4CCOCC4)c3)n[nH]c2cc1F [Example 364]
[1]; [10]
  IC50: 1.9 nM

## COc1ccncc1-c1ccc2[nH]nc(-c3ccnc(N4CCOCC4=O)c3)c2c1 [Example 365]
[1]; [10]
  IC50: 17 nM

## COc1ccnc(F)c1-c1ccc2[nH]nc(-c3ccnc(N4CCN(S(C)(=O)=O)CC4)c3)c2c1 [Example 366]
[1]; [10]
  IC50: < 0.6 nM

## COc1ccnc(F)c1-c1ccc2[nH]nc(-c3ccnc(N4CCN(C(C)=O)CC4)c3)c2c1 [Example 367]
[1]; [10]
  IC50: < 0.6 nM

## COCCOc1ccc2[nH]nc(-c3ccnc(N4CCN(C)C(=O)C4)c3)c2c1 [Example 368]
[1]; [10]
  IC50: 30 nM

## CS(=O)(=O)c1ccc2[nH]nc(-c3ccnc(N4CCOCC4)c3)c2c1 [Example 369]
[1]; [10]
  IC50: 109 nM

## O=S(=O)(c1ccc2[nH]nc(-c3ccnc(N4CCOCC4)c3)c2c1)C1CC1 [Example 370]
[1]; [10]
  IC50: 18 nM

## CCS(=O)(=O)c1ccc2[nH]nc(-c3ccnc(N4CCOCC4)c3)c2c1 [Example 371]
[1]; [10]
  IC50: 48 nM

## CS(=O)(=O)Cc1cc2c(-c3ccnc(N4CCOCC4)c3)n[nH]c2cc1F [Example 372]
[1]; [10]
  IC50: 1210 nM

## c1cc(-c2n[nH]c3ccc(OCC4CC4)cc23)cc(N2CCOCC2)n1 [Example 373]
[1]; [10]
  IC50: 84 nM

## FC(F)(F)Oc1ccc2[nH]nc(-c3ccnc(N4CCOCC4)c3)c2c1 [Example 374]
[1]; [10]
  IC50: 28 nM

## Cn1cc(-c2ccc3[nH]nc(-c4ccnc(N5CC(O)C5)c4)c3c2)cn1 [Example 375]
[1]; [10]
  IC50: < 0.6 nM

## COCCOc1ccc2[nH]nc(-c3ccnc(N4CCOCC4)c3)c2c1 [Example 377]
[1]; [10]
  IC50: 70 nM

## CC(C)Oc1ccc2[nH]nc(-c3ccnc(N4CCOC5(CC5)C4)c3)c2c1 [Example 378]
[1]; [10]
  IC50: 7.5 nM

## Cn1cc(-c2ccc3[nH]nc(-c4ccnc(N5CCOC6(CC6)C5)c4)c3c2)cn1 [Example 379]
[1]; [10]
  IC50: 4.2 nM

## Cn1cc(-c2ccc3[nH]nc(-c4ccnc(N5CC6CCC(C5)O6)c4)c3c2)cn1 [Example 380]
[1]; [10]
  IC50: 1.9 nM

## Cn1cc(-c2ccc3[nH]nc(-c4ccnc(N5CCN(S(C)(=O)=O)CC5)c4)c3c2)cn1 [Example 381]
[1]; [10]
  IC50: 1.9 nM
[2]
  IC50: 24 nM
[3]; test conc 0.100 μM
  inhibition at 0.1 µM: 19%
[4]; test conc 0.100 μM
  inhibition at 0.1 µM: 11%
[5]
  inhibition at 0.1 µM: 11%
[6]; test conc 0.100 μM
  inhibition at 0.1 µM: 25%
[7]
  inhibition at 0.1 µM: 78%
[8]
  inhibition at 0.1 µM: 13%
[9]; test conc 0.100 μM
  percent inhibition CDK1/cyclin B: 26%
  percent inhibition CLK2: 91%
  percent inhibition IRAK1: 20%
  percent inhibition JAK3: 4%

## CC(C)Oc1ccc2[nH]nc(-c3ccnc(N4CCC(CCN)CC4)c3)c2c1 [Example 382]
[1]; [10]
  IC50: 6.8 nM

## CC(C)Oc1ccc2[nH]nc(-c3ccnc(N4CCN(C)CC4)c3)c2c1 [Example 383]
[1]; [10]
  IC50: 0.75 nM
[2]
  IC50: 22 nM
[5]
  inhibition at 0.1 µM: 10%
[7]
  inhibition at 0.1 µM: 8%
[8]
  inhibition at 0.1 µM: 8%
[9]; test conc 0.100 μM
  percent inhibition CDK1/cyclin B: 5%
  percent inhibition CLK2: 26%
  percent inhibition IRAK1: 2%
  percent inhibition JAK3: 7%

## CC(C)Oc1ccc2[nH]nc(-c3ccnc(N4CCN(C)C(C)C4)c3)c2c1 (stereo not shown) [Example 384]
[1]; [10]
  IC50: 2.2 nM

## CC(C)Oc1ccc2[nH]nc(-c3ccnc(N4CCN(S(C)(=O)=O)C(C)C4)c3)c2c1 (stereo not shown) [Example 385]
[1]; [10]
  IC50: 2.2 nM

## CC(C)Oc1ccc2[nH]nc(-c3ccnc(N4CCN(C(=O)C5CC5)C(C)C4)c3)c2c1 (stereo not shown) [Example 386]
[1]; [10]
  IC50: 2.8 nM

## c1cc(-c2n[nH]c3ccc(C4CC4)cc23)cc(N2CCOCC2)n1 [Example 387]
[1]; [10]
  IC50: 6 nM

## COc1nccnc1-c1ccc2[nH]nc(-c3ccnc(N4CCOCC4)c3)c2c1 [Example 388]
[1]; [10]
  IC50: 38 nM

## Oc1nccnc1-c1ccc2[nH]nc(-c3ccnc(N4CCOCC4)c3)c2c1 [Example 389]
[1]; [10]
  IC50: < 0.6 nM

## Fc1ccc2[nH]nc(-c3ccnc(N4CCOCC4)c3)c2c1 [Example 391]
[1]; [10]
  IC50: 61 nM

## Fc1ccc2c(-c3ccnc(N4CCOCC4)c3)n[nH]c2c1 [Example 392]
[1]; [10]
  IC50: 32 nM

## COC(=O)c1ccc2[nH]nc(-c3ccnc(N4CCOCC4)c3)c2c1 [Example 393]
[1]; [10]
  IC50: 15 nM

## c1cc(-c2n[nH]c3cc4c(cc23)OCCO4)cc(N2CCOCC2)n1 [Example 394]
[1]; [10]
  IC50: 12 nM

## CC(C)Oc1ccc2[nH]nc(-c3ccnc(NS(C)(=O)=O)c3)c2c1 [Example 395]
[1]; [10]
  IC50: 20 nM

## FC(F)n1cc(-c2ccc3[nH]nc(-c4ccnc(N5CCOCC5)c4)c3c2)cn1 [Example 396]
[1]; [10]
  IC50: 2.8 nM

## Cc1cc2[nH]nc(-c3ccnc(N4CCOCC4)c3)c2cc1OC(C)C [Example 397]
[1]; [10]
  IC50: 167 nM

## Oc1ccc2[nH]nc(-c3ccnc(N4C5CCC4COC5)c3)c2c1 [Example 398]
[1]; [10]
  IC50: 69 nM

## c1cc(-c2ccc3[nH]nc(-c4ccnc(N5CCOCC5)c4)c3c2)cc(N2CCOCC2)n1 [Example 399]
[1]; [10]
  IC50: 74 nM

## CC(C)Oc1ccc2[nH]nc(-c3ccnc(N4CCOCC4)c3)c2c1 [Example 400]
[1]; [10]
  IC50: 1.9 nM
[2]
  IC50: 14 nM
[3]
  inhibition at 1 µM: 16%
[4]
  inhibition at 1 µM: 51%
[5]
  inhibition at 1 µM: 41%
[6]
  inhibition at 1 µM: 72%
[7]
  inhibition at 1 µM: 9%
[8]
  inhibition at 1 µM: 9%
[9]; test conc 1 μM
  percent inhibition CDK1/cyclin B: 29%
  percent inhibition CLK2: 47%
  percent inhibition IRAK1: 11%
  percent inhibition JAK3: 49%

## [2H]C1([2H])OC([2H])([2H])C([2H])([2H])N(c2cc(-c3n[nH]c4ccccc34)ccn2)C1([2H])[2H] [Example 401]
[1]; [11]
  IC50: 27 nM

## c1ccc2c(-c3ccnc(N4CC5CCC(C4)O5)c3)n[nH]c2c1 [Example 402]
[1]; [11]
  IC50: 27 nM
